Laboratory results as given in article PMC10487436, “Towards Anticancer and Antibacterial Agents: Design and Synthesis of 1,2,3-Triazol-quinobenzothiazine Derivatives” (International Journal of Molecular Sciences, 2023).
Converted amounts (≈) assume the structure as drawn.

Experiments:
[1] = system: methicillin-resistant S. aureus SA 630; assay: MIC, microtitration broth method, MRSA2; assay type: cell-based; settings: Staphylococcus aureus; 24 h at 37 °C
Method: (§1) In vitro antibacterial activity of the synthesized compounds was evaluated against representatives of multidrug-resistant bacteria, three clinical isolates of methicillin-resistant S. aureus: clinical isolates of animal origin, MRSA 63718 (Department of Infectious Diseases and Microbiology, Faculty of Veterinary Medicine, University of Veterinary Sciences Brno, Czech Republic), carrying the mecA gene; and MRSA SA 630 and MRSA SA 3202 [52] (National Institute of Public Health, Prague, Czech Republic), both of human origin. […] Vancomycin- and methicillin-susceptible S. aureus ATCC 29213 and vancomycin-susceptible Enterococcus faecalis ATCC 29212, obtained from the American Type Culture Collection, were used as the reference and quality control strains. Three vanA gene-carrying vancomycin-resistant isolates of E. faecalis (VRE 342B, VRE 368, VRE 725B) were provided by Oravcova et al..
(§2) The minimum inhibitory concentrations (MICs) were evaluated by the microtitration broth method according to the CLSI, with some modifications. The compounds were dissolved in DMSO (Sigma, St. Louis, MO, USA) to obtain a concentration of […] and diluted in a microtitration plate in an appropriate medium, i.e., Cation Adjusted Mueller–Hinton Broth (CaMH, Oxoid, Basingstoke, UK) for staphylococci, and Brain Heart Infusion Broth (BHI, Oxoid) for enterococci, to reach the final concentration of 256–0.125 µg/mL. Microtiter plates were inoculated with test micro-organisms so that the final concentration of bacterial cells was 10^5. […] A drug-free control and a sterility control were included. The plates were incubated for 24 h at 37 °C for staphylococci and enterococci. […] The experiments were repeated three times.

[2] = system: T-47D (human breast cancer); assay: WST-1 proliferation assay, T47D; assay type: cell-based; settings: Homo sapiens, T47D, 72 h exposure
Method: (§3) Compounds were evaluated for their antiproliferative activity using three cultured cell lines: A549 (human lung carcinoma, ATCC, Manassas, VA, USA), SNB-19 (human glioblastoma, DSMZ, German Collection of Microorganisms and Cell Cultures), T-47D (human breast cancer, ATCC, Manassas, VA, USA), and NHDF (normal human dermal fibroblasts, ATCC, Manassas, VA, USA). The cultured cells were kept at 37 °C and 5% CO2. The cells were seeded (1 × 10^4 cells/well/100 μL DMEM supplemented with 10% FCS, streptomycin, and penicillin) using 96-well plates (corning). Cells were counted in a hemocytometer (Burker chamber) using a phase contrast Olympus IX50 microscope equipped with a Sony SSC-DC58 AP camera and an Olympus DP10 digital camera.
(§4) The antiproliferative effect of the compounds exerted on cancer and normal cells was determined using the Cell Proliferation Reagent WST-1 assay (Roche Molecular Biochemicals, Mannheim, Germany). This assay is based on a colorimetric method using the enzymatic ability of viable cells to cause the bright, red-colored stable tetrazolium monosodium salt [2-(4-iodophenyl)-3-(4-nitrophenyl)-5-(2,4-disulfophenyl)–2H-tetra-zolium] to transform into the dark, red-colored soluble formazan. […] An increase in the amount of formazan dye formed correlated with the number of metabolically active cells in the culture. The formazan dye produced by metabolically active cells was quantified by absorbance readings at appropriate wavelengths. The examined cells were exposed to the tested compounds (1 mM DMSO stock) for 72 h at various concentrations (0.1–100 μM). The control was performed in order to eliminate the DMSO effect at the concentration used. Cell cultures were incubated with WST-1 (10 μL) for 1 h. The absorbance of the samples was measured against a background control at 450 nm using a microplate reader with a reference wavelength at 600 nm. The obtained results are expressed as the means of at least two independent experiments performed in triplicate. The antiproliferative activity of the tested compounds was compared to that of cisplatinum. The values of IC50 (a concentration of a compound that is required for 50% inhibition) were calculated from the dose-response relationship with respect to control. The results were reported as the mean (±std) of three separate experiments.

[3] = system: Mycobacterium smegmatis ATCC 700084; assay: MBC, agar aliquot subculture method, MS; assay type: cell-based; settings: Mycolicibacterium smegmatis, ATCC700084
Method: (§5) For the above-mentioned strains/isolates, the agar aliquot subculture method was used as a test for bactericidal agents. After the MIC value determination, the inoculum was transferred to CaMH (Oxoid) for staphylococci, BHI (Oxoid) for enterococci, and Middlebrook 7H9 (Difco) for mycobacteria medium using a multipoint inoculator. As indicated above, the plates were incubated on a thermostat at 37 °C for the appropriate time for each micro-organism. The lowest concentration of test compound at which ≤5 colonies were obtained was then evaluated as MBC, corresponding to a 99.9% decrease in CFU relative to the original inoculum.

[4] = system: vancomycin-resistant E. faecalis VRE 368; assay: MIC, microtitration broth method, VRE2; assay type: cell-based; settings: Enterococcus faecalis, 24 h at 37 °C
Method: as §1, §2

[5] = system: methicillin-resistant S. aureus SA 3202; assay: MIC, microtitration broth method, MRSA1; assay type: cell-based; settings: Staphylococcus aureus; 24 h at 37 °C
Method: as §1, §2

[6] = system: Staphylococcus aureus ATCC 29213; assay: MBC, agar aliquot subculture method, SA; assay type: cell-based; settings: ATCC29213
Method: as §5

[7] = system: vancomycin-resistant E. faecalis VRE 725B; assay: MIC, microtitration broth method, VRE3; assay type: cell-based; settings: Enterococcus faecalis, 24 h at 37 °C
Method: as §1, §2

[8] = system: methicillin-resistant S. aureus SA 630; assay: MBC, agar aliquot subculture method, MRSA2; assay type: cell-based; settings: Staphylococcus aureus
Method: as §5

[9] = system: A549 (human lung carcinoma); assay: WST-1 proliferation assay, A549; assay type: cell-based; settings: Homo sapiens, A549, 72 h exposure
Method: as §3, §4

[10] = system: vancomycin-resistant E. faecalis VRE 342B; assay: MIC, microtitration broth method, VRE1; assay type: cell-based; settings: Enterococcus faecalis, 24 h at 37 °C
Method: as §1, §2

[11] = system: Enterococcus faecalis ATCC 29213; assay: MIC, microtitration broth method, EF; assay type: cell-based; settings: ATCC29213, 24 h at 37 °C
[12] = system: Staphylococcus aureus ATCC 29213; assay: MIC, microtitration broth method, SA; assay type: cell-based; settings: ATCC29213, 24 h at 37 °C
Method: as §1, §2

[13] = system: Mycobacterium marinum CAMP 5644; assay: MIC, broth dilution micro-method, MM; assay type: cell-based; settings: CAMP5644, 504 h, 21 days at 28 °C
[14] = system: NHDF (normal human dermal fibroblasts); assay: WST-1 proliferation assay, NHDF; assay type: cell-based; settings: Homo sapiens, NHDF, normal cells, 72 h exposure
Method: as §3, §4

[15] = system: methicillin-resistant S. aureus 63718; assay: MIC, microtitration broth method, MRSA3; assay type: cell-based; settings: Staphylococcus aureus; 24 h at 37 °C
Method: as §1, §2

[16] = system: methicillin-resistant S. aureus 63718; assay: MBC, agar aliquot subculture method, MRSA3; assay type: cell-based; settings: Staphylococcus aureus
Method: as §5

[17] = system: Mycobacterium marinum CAMP 5644; assay: MBC, agar aliquot subculture method, MM; assay type: cell-based; settings: CAMP5644
Method: as §5

[18] = system: SNB-19 (human glioblastoma); assay: WST-1 proliferation assay, SNB-19; assay type: cell-based; settings: Homo sapiens, SNB-19, 72 h exposure
Method: as §3, §4

[19] = system: human cancer cell lines (A549, SNB-19, and T-47D); assay: WST-1 proliferation assay, cancer cell line panel; assay type: cell-based; settings: SNB-19, A549, T47D, read-out: IC50 range over the tested cancer cell lines
Method: as §3
The antiproliferative effect of the compounds exerted on cancer and normal cells was determined using the Cell Proliferation Reagent WST-1 assay (Roche Molecular Biochemicals, Mannheim, Germany). […] The formazan dye produced by metabolically active cells was quantified by absorbance readings at appropriate wavelengths. […] The absorbance of the samples was measured against a background control at 450 nm using a microplate reader with a reference wavelength at 600 nm. The obtained results are expressed as the means of at least two independent experiments performed in triplicate. […]

[20] = system: Mycobacterium smegmatis ATCC 700084; assay: MIC, broth dilution micro-method, MS; assay type: cell-based; settings: Mycolicibacterium smegmatis, ATCC700084, 72 h; 3 days at 37 °C
[21] = system: methicillin-resistant S. aureus SA 3202; assay: MBC, agar aliquot subculture method, MRSA1; assay type: cell-based; settings: Staphylococcus aureus
Method: as §5

[22] = system: Mycobacterium smegmatis ATCC 700084; settings: 3 days; for Conc.: lowest multiple of MBC with at least 70% inhibition of respiratory activity / Conc.: lowest multiple of MIC with at least 70% inhibition of respiratory activity: MTT; for M. smegmatis Respiration Inhibition: at the concentration (lowest multiple of MIC with at least 70% inhibition)
[23] = system: vancomycin-resistant E. faecalis VRE 368; assay: MBC, agar aliquot subculture method, VRE2; assay type: cell-based; settings: Enterococcus faecalis
Method: as §5

[24] = system: Enterococcus faecalis; assay: MBC, agar aliquot subculture method, EF; assay type: cell-based; settings: ATCC29213
Method: as §5

[25] = system: methicillin-resistant S. aureus 63718; design: method as in PMID 20386717; settings: MRSA 63718, characterisation of the isolate; cited from earlier work

Row | SMILES | MIC [1] | IC50 [2] | MIC [4] | MIC [5] | MIC [7] | IC50 [9] | MIC [10] | MIC [11] | MIC [12] | MIC [13] | MIC [15] | IC50 [18] | MIC [20] | MBC [3] | MBC [6] | MBC [8] | IC50 [14] | MBC [16] | MBC [17] | MBC [21] | also measured
1 | CC1(C)S[C@@H]2[C@H](NC(=O)[C@H](N)c3ccccc3)C(=O)N2[C@H]1C(=O)O [AMP, ampicillin, reference compound] | > 45.8 µM | – | – | > 45.8 µM | – | – | – | 2.81 µM (≈ 0.982 µg/mL) | 5.72 µM (≈ 2 µg/mL) | – | 45.8 µM (≈ 16 µg/mL) | – | – | – | 5.72 µM (≈ 2 µg/mL) | > 45.8 µM | – | 45.8 µM (≈ 16 µg/mL) | – | > 45.8 µM | MBC [24]: 2.81 µM (≈ 0.982 µg/mL)
2 | CN[C@H](CC(C)C)C(=O)N[C@H]1C(=O)N[C@@H](CC(N)=O)C(=O)N[C@H]2C(=O)N[C@H]3C(=O)N[C@H](C(=O)N[C@H](C(=O)O)c4cc(O)cc(O)c4-c4cc3ccc4O)[C@H](O)c3ccc(c(Cl)c3)Oc3cc2cc(c3O[C@@H]2O[C@H](CO)[C@@H](O)[C@H](O)[C@H]2O[C@H]2C[C@](C)(N)[C@H](O)[C@H](C)O2)Oc2ccc(cc2Cl)[C@H]1O [vancomycin] | – | – | – | – | – | – | – | – | – | – | – | – | – | – | – | – | – | – | – | – | MIC of vancomycin [25]: 2 µg/mL

More lines, main results first:

Row | MIC [1] | IC50 [2] | MIC [4] | MIC [5] | MIC [7] | IC50 [9] | MIC [10] | MIC [11] | MIC [12] | MIC [13] | MIC [15] | IC50 [18] | MIC [20] | SMILES | MBC [3] | MBC [6] | MBC [8] | IC50 [14] | MBC [16] | MBC [17] | MBC [21] | also measured
3 | 262 µM | 2.1 ± 0.5 µM | 262 µM | 262 µM | 262 µM | 0.45 ± 0.08 µM | 524 µM | 262 µM | 131 µM | 65.5 µM | 131 µM | 0.23 ± 0.06 µM | 32.7 µM | C=CCn1cc(COc2ccc3c(c2)Sc2c[n+](C)c4ccccc4c2N3)nn1 [2a, 5-Methyl-9-(1-allyl-1H-1,2,3-triazol-4-yl)methoxy-12H-quino [3,4-b][1,4]benzothiazinium chloride] | 32.7 µM | 131 µM | 262 µM | 47.8 ± 3.5 µM | 131 µM | 65.5 µM | – | IC50 [19]: 0.23 to 2.1 µM
4 | 65.5 µM | 4.3 ± 0.2 µM | 524 µM | 65.5 µM | 524 µM | 14.1 ± 0.6 µM | 524 µM | 524 µM | 65.5 µM | 16.3 µM | 32.7 µM | 9.6 ± 0.8 µM | 16.3 µM | C[n+]1cc2c(c3ccccc31)Nc1c(OCc3cn(CSc4ccccc4)nn3)cccc1S2 [2l, 5-Methyl-11-(1-(phenylthio)methyl-1H-1,2,3-triazol-4-yl)methoxy-12H-quino [3,4-b][1,4] benzothiazinium chloride] | 16.3 µM | 65.5 µM | 65.5 µM | > 100 µM | 32.7 µM | 16.3 µM | 131 µM | Conc.: lowest multiple of MBC with at least 70% inhibition of respiratory activity [22]: 2× MIC (2× MBC); Conc.: lowest multiple of MIC with at least 70% inhibition of respiratory activity [22]: 2× MIC (2× MBC); M. smegmatis Respiration Inhibition [22]: 87.3%
5 | 131 µM | 8.9 ± 0.9 µM | 524 µM | 131 µM | 524 µM | 16.8 ± 1.2 µM | > 524 µM | 65.5 µM | 65.5 µM | 16.3 µM | 32.7 µM | 23.4 ± 1.5 µM | 8.19 µM | C[n+]1cc2c(c3ccccc31)Nc1ccc(OCc3cn(-c4ccc(Cl)cc4)nn3)cc1S2 [2m, 5-Methyl-9-(1-(4-chlorophenyl)-1H-1,2,3-triazol-4-yl)methoxy-12H-quino [3,4-b][1,4]benzothiazinium chloride] | 8.19 µM | 65.5 µM | 131 µM | > 100 µM | 32.7 µM | 16.3 µM | 131 µM | MBC [23]: 524 µM; Conc.: lowest multiple of MBC with at least 70% inhibition of respiratory activity [22]: 1× MIC (1× MBC); Conc.: lowest multiple of MIC with at least 70% inhibition of respiratory activity [22]: 1× MIC (1× MBC); viability of M. smegmatis at MIC value ([22]; Mycobacterium smegmatis): less than 70%; M. smegmatis Respiration Inhibition [22]: 87.1%
